Measurements reported in US12545639B2, “3-substituted phenylamidine compounds, preparation and use thereof” (PI INDUSTRIES LTD., priority 2019, dated 2026).

Legend:
[1] = test system: Pyricularia oryzae; assay: microbe, parasite or virus in culture; assay type: cell-based; details: 168 h, read-out: control compared to the untreated check (radial growth)
[2] = test system: Rhizoctonia solani; assay: Rhizoctonia solani (rice sheath blight/potato black scurf) in vitro test, radial growth on potato dextrose agar; assay type: cell-based; details: 168 h, 300 ppm in potato dextrose agar, 25° C., 60% relative humidity, seven days, read-out: control compared to the untreated check (radial growth)
[3] = test system: Botrytis cinerea; assay: Botrytis cinerea (gray mold) in vitro test, radial growth on potato dextrose agar; assay type: cell-based; details: 168 h, 300 ppm in potato dextrose agar, 22° C., 90% relative humidity, seven days, read-out: control compared to the untreated check (radial growth)
[4] = test system: Alternaria solani; assay: Alternaria solani (early blight of tomato/potato) in vitro test, radial growth on potato dextrose agar; assay type: cell-based; details: 168 h, 300 ppm in potato dextrose agar, 25° C., 60% relative humidity, seven days, read-out: control compared to the untreated check (radial growth)
[5] = test system: Colletotrichum capsici; assay: Colletotrichum capsici (anthracnose) in vitro test, radial growth on potato dextrose agar; assay type: cell-based; details: Colletotrichum truncatum, 168 h; 300 ppm in potato dextrose agar; 25° C., 60% relative humidity, seven days; read-out: control compared to the untreated check (radial growth)
[6] = test system: Septoria lycopersici/Corynespora cassicola (CORYCA); assay: Septoria lycopersici/Corynespora cassicola (CORYCA) (leaf spot of tomato) in vitro test, radial growth on potato dextrose agar; assay type: cell-based; details: 168 h, 300 ppm in potato dextrose agar, 25° C., 70% relative humidity, seven days, read-out: control compared to the untreated check (radial growth)
[7] = test system: Fusarium culmorum; assay: Fusarium culmorum (foot rot of cereals) in vitro test, radial growth on potato dextrose agar; assay type: cell-based; details: 168 h, 300 ppm in potato dextrose agar, 25° C., 60% relative humidity, seven days, read-out: control compared to the untreated check (radial growth)
In short: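 Compound in 0.3% DMSO mixed into potato dextrose agar, plates seeded with a 5 mm mycelial disc from an actively growing virulent culture. After seven days at 25° C and 60% relative humidity, radial growth was measured against untreated control.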

[8] = test system: Phakopsora pachyrhizi; assay: Phakopsora pachyrhizi test in soybean, preventive, in vivo on plants; details: in Glycine max, read-out: Efficacy (% control), disease severity compared to the untreated check

CCN(C)C=Nc1cc(C)cc(Cc2ccc(Cl)cc2)c1C [Compound 224, N′-(3-(4-chlorobenzyl)-2,5-dimethylphenyl)-N-ethyl-N-methylformimidamide]
≥ 70%: inhibition of growth at 300 ppm [1] | inhibition of growth at 300 ppm [2] | inhibition of growth at 300 ppm [3] | inhibition of growth at 300 ppm [4] | inhibition of growth at 300 ppm [5] | inhibition of growth at 300 ppm [6] | inhibition of growth at 300 ppm [7] | pest or weed control at 500 ppm [8]

CCN(C)C=Nc1cc(Cl)cc(Cc2ccc(Br)cc2)c1C [Compound 125, N′-(3-(4-bromobenzyl)-5-chloro-2-methylphenyl)-N-ethyl-N-methylformimidamide]
≥ 70%: inhibition of growth at 300 ppm [1] | inhibition of growth at 300 ppm [2] | inhibition of growth at 300 ppm [3] | inhibition of growth at 300 ppm [4] | inhibition of growth at 300 ppm [5] | inhibition of growth at 300 ppm [6] | inhibition of growth at 300 ppm [7] | pest or weed control at 500 ppm [8]

CCN(C)C=Nc1cc(C)cc(Cc2cccc(C)c2)c1C [Compound 208, N′-(2,5-dimethyl-3-(3-methylbenzyl)phenyl)-N-ethyl-N-methylformimidamide]
≥ 70%: inhibition of growth at 300 ppm [1] | inhibition of growth at 300 ppm [2] | inhibition of growth at 300 ppm [3] | inhibition of growth at 300 ppm [4] | inhibition of growth at 300 ppm [5] | inhibition of growth at 300 ppm [6] | inhibition of growth at 300 ppm [7] | pest or weed control at 500 ppm [8]

CCN(C)C=Nc1cc(C)cc(Cc2ccc(Br)cc2)c1C [Compound 223, N′-(3-(4-bromobenzyl)-2,5-dimethylphenyl)-N-ethyl-N-methylformimidamide]
≥ 70%: inhibition of growth at 300 ppm [1] | inhibition of growth at 300 ppm [2] | inhibition of growth at 300 ppm [3] | inhibition of growth at 300 ppm [4] | inhibition of growth at 300 ppm [5] | inhibition of growth at 300 ppm [6] | inhibition of growth at 300 ppm [7] | pest or weed control at 500 ppm [8]

CCN(C)C=Nc1cc(C)cc(Cc2cccc(C)c2)c1Cl [Compound 17, N′-(2-chloro-5-methyl-3-(3-methylbenzyl)phenyl)-N-ethyl-N-methylformimidamide]
≥ 70%: inhibition of growth at 300 ppm [1] | inhibition of growth at 300 ppm [2] | inhibition of growth at 300 ppm [3] | inhibition of growth at 300 ppm [4] | inhibition of growth at 300 ppm [5] | inhibition of growth at 300 ppm [6] | inhibition of growth at 300 ppm [7] | pest or weed control at 500 ppm [8]

CCN(C)C=Nc1cc(Cl)cc(Cc2ccc(Cl)cc2)c1C [Compound 126, N′-(5-chloro-3-(4-chlorobenzyl)-2-methylphenyl)-N-ethyl-N-methylformimidamide]
≥ 70%: inhibition of growth at 300 ppm [1] | inhibition of growth at 300 ppm [2] | inhibition of growth at 300 ppm [3] | inhibition of growth at 300 ppm [4] | inhibition of growth at 300 ppm [5] | inhibition of growth at 300 ppm [6] | inhibition of growth at 300 ppm [7] | pest or weed control at 500 ppm [8]

CCN(C)C=Nc1cc(C)cc(Cc2cccc(Cl)c2F)c1Cl [Compound 56, N′-(2-chloro-3-(3-chloro-2-fluorobenzyl)-5-methylphenyl)-N-ethyl-N-methylformimidamide]
≥ 70%: inhibition of growth at 300 ppm [1] | inhibition of growth at 300 ppm [2] | inhibition of growth at 300 ppm [3] | inhibition of growth at 300 ppm [4] | inhibition of growth at 300 ppm [5] | inhibition of growth at 300 ppm [6] | inhibition of growth at 300 ppm [7] | pest or weed control at 500 ppm [8]

CCN(C)C=Nc1cc(C)cc(Cc2ccc(F)cc2)c1C [Compound 222, N-ethyl-N′-(3-(4-fluorobenzyl)-2,5-dimethylphenyl)-N-methylformimidamide]
≥ 70%: inhibition of growth at 300 ppm [1] | inhibition of growth at 300 ppm [2] | inhibition of growth at 300 ppm [3] | inhibition of growth at 300 ppm [4] | inhibition of growth at 300 ppm [5] | inhibition of growth at 300 ppm [6] | inhibition of growth at 300 ppm [7] | pest or weed control at 500 ppm [8]

CCN(C)C=Nc1cc(Cl)cc(Cc2ccc(F)c(F)c2)c1C [Compound 129, N′-(5-chloro-3-(3,4-difluorobenzyl)-2-methylphenyl)-N-ethyl-N-methylformimidamide]
≥ 70%: inhibition of growth at 300 ppm [1] | inhibition of growth at 300 ppm [2] | inhibition of growth at 300 ppm [3] | inhibition of growth at 300 ppm [4] | inhibition of growth at 300 ppm [5] | inhibition of growth at 300 ppm [6] | inhibition of growth at 300 ppm [7] | pest or weed control at 500 ppm [8]

CCN(C)C=Nc1cc(C)cc(Cc2ccccc2)c1C [Compound 207, N′-(3-benzyl-2,5-dimethylphenyl)-N-ethyl-N-methylformimidamide]
≥ 70%: inhibition of growth at 300 ppm [1] | inhibition of growth at 300 ppm [2] | inhibition of growth at 300 ppm [3] | inhibition of growth at 300 ppm [4] | inhibition of growth at 300 ppm [5] | inhibition of growth at 300 ppm [6] | inhibition of growth at 300 ppm [7] | pest or weed control at 500 ppm [8]

CCN(C)C=Nc1cc(F)cc(Cc2ccc(F)cc2)c1C [Compound 204, N-ethyl-N′-(5-fluoro-3-(4-fluorobenzyl)-2-methylphenyl)-N-methylformimidamide]
≥ 70%: inhibition of growth at 300 ppm [1] | inhibition of growth at 300 ppm [2] | inhibition of growth at 300 ppm [3] | inhibition of growth at 300 ppm [4] | inhibition of growth at 300 ppm [5] | inhibition of growth at 300 ppm [6] | inhibition of growth at 300 ppm [7] | pest or weed control at 500 ppm [8]

CCN(C)C=Nc1cc(F)cc(Nc2cc(F)cc(F)c2)c1C [Compound 77, N′-(3-((3,5-difluorophenyl)amino)-5-fluoro-2-methylphenyl)-N-ethyl-N-methylformimidamide]
≥ 70%: inhibition of growth at 300 ppm [1] | inhibition of growth at 300 ppm [2] | inhibition of growth at 300 ppm [3] | inhibition of growth at 300 ppm [4] | inhibition of growth at 300 ppm [5] | inhibition of growth at 300 ppm [6] | inhibition of growth at 300 ppm [7] | pest or weed control at 500 ppm [8]

CCN(C)C=Nc1cc(F)cc(Cc2ccc(Br)cc2F)c1C [Compound 236, N′-(3-(4-bromo-2-fluorobenzyl)-5-fluoro-2-methylphenyl)-N-ethyl-N-methylformimidamide]
≥ 70%: inhibition of growth at 300 ppm [1] | inhibition of growth at 300 ppm [2] | inhibition of growth at 300 ppm [3] | inhibition of growth at 300 ppm [4] | inhibition of growth at 300 ppm [5] | inhibition of growth at 300 ppm [6] | inhibition of growth at 300 ppm [7] | pest or weed control at 500 ppm [8]

CCN(C)C=Nc1cc(F)cc(Nc2ccc(C(C)(C)C)cc2)c1C [Compound 20, N′-(3-((4-(tert-butyl)phenyl)amino)-5-fluoro-2-methylphenyl)-N-ethyl-N-methylformimidamide]
≥ 70%: inhibition of growth at 300 ppm [1] | inhibition of growth at 300 ppm [2] | inhibition of growth at 300 ppm [3] | inhibition of growth at 300 ppm [4] | inhibition of growth at 300 ppm [5] | inhibition of growth at 300 ppm [6] | inhibition of growth at 300 ppm [7] | pest or weed control at 500 ppm [8]

CCN(C)C=Nc1cc(C)cc(Cc2ccc(C)cc2)c1Cl [Compound 18, N′-(2-chloro-5-methyl-3-(4-methylbenzyl)phenyl)-N-ethyl-N-methylformimidamide]
≥ 70%: inhibition of growth at 300 ppm [1] | inhibition of growth at 300 ppm [2] | inhibition of growth at 300 ppm [3] | inhibition of growth at 300 ppm [4] | inhibition of growth at 300 ppm [5] | inhibition of growth at 300 ppm [6] | inhibition of growth at 300 ppm [7] | pest or weed control at 500 ppm [8]

CCN(C)C=Nc1cc(OC)cc(Cc2ccc(C)cc2)c1C [Compound 263, N-ethyl-N′-(5-methoxy-2-methyl-3-(4-methylbenzyl)phenyl)-N-methylformimidamide]
≥ 70%: inhibition of growth at 300 ppm [1] | inhibition of growth at 300 ppm [2] | inhibition of growth at 300 ppm [3] | inhibition of growth at 300 ppm [4] | inhibition of growth at 300 ppm [5] | inhibition of growth at 300 ppm [6] | inhibition of growth at 300 ppm [7] | pest or weed control at 500 ppm [8]

CCN(C)C=Nc1cc(C)cc(Cc2ccc(F)cc2)c1Cl [Compound 44, N′-(2-chloro-3-(4-fluorobenzyl)-5-methylphenyl)-N-ethyl-N-methylformimidamide]
≥ 70%: inhibition of growth at 300 ppm [1] | inhibition of growth at 300 ppm [2] | inhibition of growth at 300 ppm [3] | inhibition of growth at 300 ppm [4] | inhibition of growth at 300 ppm [5] | inhibition of growth at 300 ppm [6] | inhibition of growth at 300 ppm [7] | pest or weed control at 500 ppm [8]

CCN(C)C=Nc1cc(OC)cc(Cc2ccc(Br)cc2)c1C [Compound 287, N′-(3-(4-bromobenzyl)-5-methoxy-2-methylphenyl)-N-ethyl-N-methylformimidamide]
≥ 70%: inhibition of growth at 300 ppm [1] | inhibition of growth at 300 ppm [2] | inhibition of growth at 300 ppm [3] | inhibition of growth at 300 ppm [4] | inhibition of growth at 300 ppm [5] | inhibition of growth at 300 ppm [6] | inhibition of growth at 300 ppm [7] | pest or weed control at 500 ppm [8]

CCN(C)C=Nc1cc(C)cc(Cc2ccccc2Br)c1C [Compound 221, N′-(3-(2-bromobenzyl)-2,5-dimethylphenyl)-N-ethyl-N-methylformimidamide]
≥ 70%: inhibition of growth at 300 ppm [1] | inhibition of growth at 300 ppm [2] | inhibition of growth at 300 ppm [3] | inhibition of growth at 300 ppm [4] | inhibition of growth at 300 ppm [5] | inhibition of growth at 300 ppm [6] | inhibition of growth at 300 ppm [7] | pest or weed control at 500 ppm [8]
